Molecular target: T1, human Cav3.2 channels (Homo sapiens, UniProt O95180)
T1 construct: expressed in transfected cells; host or cells: HEK293 cells (ATCC No. CRL-1573), plasmid pcDNA3.1(+)
Experiment: Intracellular calcium concentration measurement (Fluo-4 AM) in stable cells expressing human Cav3.2 channels, buffer A / buffer B
Assay type: cell-based
Details: Tables 2 to 6; buffer A, equilibrium potential of potassium −92 mV; read-out: Inhibitory action of buffer A (inactivated state)
Text: Construction of Stable Cells Expressing Human Cav3.2 Channels
(1) A sequence produced by incorporating HindIII site and kozak sequence (GCCACC) into the 5′-terminal side of human Cav3.2 channel ORF (Open Reading Frame) gene and incorporating Kpnl site into the 3′-terminal side was incorporated into pcDNA3.1(+) (Thermo-Fisher Scientific, Inc., #V790-20), and the plasmid was transfected into HEK293 cells (ATCC No. CRL-1573) according to the protocol of FuGENE (registered trademark) HD Transfection Reagent (PROMEGA #E2311).
(2) Method for Measuring Intracellular Calcium Concentration
In the present measurement system, buffer A and buffer B having different potassium ion concentrations were used in order to evaluate the state-dependent Cav3.2 inhibitory action of a test compound.
Stable cell line expressing human Cav3.2 channels, which had been produced in (1), was seeded in a 96-well plate using DMEM medium including 10% FBS, and the cells were cultured for 48 hours under the conditions of 37° C. and 5% CO2. Subsequently, the medium was removed, and various wells that had been washed with a base buffer were treated with 80 μL of a fluorescent dye solution containing a mixed liquid of 22 μg of calcium fluorescence indicator Fluo-4 AM (Dojindo Laboratories Co., Ltd., #F311), 20 μL of DMSO, […] of 10% Pluronic F-127 (Thermo-Fisher Scientific, Inc., #P6866), and 4 mL of a base buffer. The cells were left to stand for 45 minutes at room temperature in the dark, and then the cells were washed with buffer A or buffer B. Solutions having various test compound concentrations and respectively containing buffer A or buffer B were added to the respective wells, the respective solutions containing DMSO at the same final concentration as that of the test compound as negative control, or containing the test compound dissolved in 100% DMSO at a final concentration of 0.1%. The cells were left to stand for another 15 minutes at room temperature in the dark, and the cells were analyzed using the following method using a microplate reader, EnVision (PerkinElmer, Inc.). First, the background fluorescence for each well was measured, subsequently an ionophore was added to the well, and the fluorescence of the baseline was measured. Subsequently, buffer A or buffer B containing added KCl at a concentration of 83.8 mM or 91.8 mM was added to each well, and an increase in fluorescence caused by a calcium influx generated by that stimulus was measured for 10 seconds. The percentage inhibition was calculated from the maximum fluorescence increment from the baseline, and the logarithmic value of the test compound concentration and the inhibitory activity were plotted to calculate the IC50 value. The analysis was carried out by measuring the fluorescence at 510 nm emitted when the cells were irradiated with exciting light at 485 nm.
Base buffer: 140 mM NaCl, 5 mM KCl, 1 mM MgCl2, 0.5 mM CaCl2, 10 mM Glucose, and 10 mM HEPES, pH 7.3
Buffer A: Equilibrium potential of potassium: −92 mV

T1 sequence (O95180 whole entry): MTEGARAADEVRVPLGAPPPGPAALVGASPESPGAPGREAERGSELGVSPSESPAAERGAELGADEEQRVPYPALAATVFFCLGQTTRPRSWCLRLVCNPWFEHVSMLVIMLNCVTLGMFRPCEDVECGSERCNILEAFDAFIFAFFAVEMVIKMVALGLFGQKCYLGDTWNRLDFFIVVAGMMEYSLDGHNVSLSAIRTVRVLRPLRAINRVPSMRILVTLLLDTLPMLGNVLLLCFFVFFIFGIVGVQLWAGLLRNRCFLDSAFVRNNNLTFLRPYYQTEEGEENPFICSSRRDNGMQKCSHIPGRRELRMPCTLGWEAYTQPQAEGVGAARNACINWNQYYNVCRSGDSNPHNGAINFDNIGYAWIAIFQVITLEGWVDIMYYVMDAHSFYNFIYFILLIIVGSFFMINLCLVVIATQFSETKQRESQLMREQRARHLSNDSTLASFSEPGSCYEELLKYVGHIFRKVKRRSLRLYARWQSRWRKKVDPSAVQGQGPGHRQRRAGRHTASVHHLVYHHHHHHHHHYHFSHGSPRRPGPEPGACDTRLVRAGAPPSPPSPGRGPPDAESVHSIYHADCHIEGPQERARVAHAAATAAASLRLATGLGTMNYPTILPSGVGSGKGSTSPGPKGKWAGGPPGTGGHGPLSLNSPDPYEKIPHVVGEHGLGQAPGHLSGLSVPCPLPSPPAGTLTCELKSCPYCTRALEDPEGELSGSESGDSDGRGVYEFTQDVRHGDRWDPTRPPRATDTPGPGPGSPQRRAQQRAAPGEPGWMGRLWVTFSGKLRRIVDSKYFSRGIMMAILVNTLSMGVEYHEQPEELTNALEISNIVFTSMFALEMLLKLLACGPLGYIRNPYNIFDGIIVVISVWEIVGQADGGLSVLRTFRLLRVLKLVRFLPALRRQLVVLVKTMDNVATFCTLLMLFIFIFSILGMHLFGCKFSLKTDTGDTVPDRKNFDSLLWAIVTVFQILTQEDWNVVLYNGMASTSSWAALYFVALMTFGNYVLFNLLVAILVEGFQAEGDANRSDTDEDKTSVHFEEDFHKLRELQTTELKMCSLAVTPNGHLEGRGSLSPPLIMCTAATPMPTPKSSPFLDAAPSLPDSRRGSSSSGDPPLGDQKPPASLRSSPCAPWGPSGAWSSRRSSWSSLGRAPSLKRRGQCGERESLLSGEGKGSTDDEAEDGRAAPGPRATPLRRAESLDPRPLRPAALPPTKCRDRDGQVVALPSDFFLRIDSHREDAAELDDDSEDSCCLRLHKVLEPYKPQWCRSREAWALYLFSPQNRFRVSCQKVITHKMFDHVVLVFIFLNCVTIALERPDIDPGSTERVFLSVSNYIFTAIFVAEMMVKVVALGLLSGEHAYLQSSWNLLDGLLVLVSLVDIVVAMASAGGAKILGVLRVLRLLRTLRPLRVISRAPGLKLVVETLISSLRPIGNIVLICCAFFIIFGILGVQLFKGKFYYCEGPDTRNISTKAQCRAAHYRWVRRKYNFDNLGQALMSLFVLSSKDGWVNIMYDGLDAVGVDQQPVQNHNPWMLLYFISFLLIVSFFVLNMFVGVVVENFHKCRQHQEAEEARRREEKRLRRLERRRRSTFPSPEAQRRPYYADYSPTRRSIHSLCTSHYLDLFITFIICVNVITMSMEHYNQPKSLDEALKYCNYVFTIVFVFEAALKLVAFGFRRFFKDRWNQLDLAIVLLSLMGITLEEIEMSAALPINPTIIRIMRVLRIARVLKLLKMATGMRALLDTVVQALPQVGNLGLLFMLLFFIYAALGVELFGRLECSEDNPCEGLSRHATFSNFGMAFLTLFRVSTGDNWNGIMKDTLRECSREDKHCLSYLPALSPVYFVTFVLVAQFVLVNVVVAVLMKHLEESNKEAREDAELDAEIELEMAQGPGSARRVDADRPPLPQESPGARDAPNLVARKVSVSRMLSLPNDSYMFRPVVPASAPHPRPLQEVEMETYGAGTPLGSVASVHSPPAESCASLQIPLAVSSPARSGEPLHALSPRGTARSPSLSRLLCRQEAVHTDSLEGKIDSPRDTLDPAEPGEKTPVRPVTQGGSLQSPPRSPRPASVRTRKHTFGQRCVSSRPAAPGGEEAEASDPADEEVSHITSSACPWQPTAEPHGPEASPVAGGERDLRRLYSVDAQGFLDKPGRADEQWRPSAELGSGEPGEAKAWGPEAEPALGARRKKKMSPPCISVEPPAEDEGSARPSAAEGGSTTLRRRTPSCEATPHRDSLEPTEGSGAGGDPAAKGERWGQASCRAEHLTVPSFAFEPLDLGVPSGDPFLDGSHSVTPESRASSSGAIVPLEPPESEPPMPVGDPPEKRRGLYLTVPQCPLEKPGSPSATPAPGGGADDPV

IC50 | SMILES
≤ 100 nM | CC(C(=O)NC12CC3CC(CC(C3)C1)C2)N1CC[C@@H](C(=O)N[C@H](C)c2cnc(OCC(F)(F)F)s2)C1 (stereo partly drawn) [Example 47, (3R)-1-(1-((adamantan-1-yl)amino)-1-oxopropan-2-yl)-N—((R)-1-(2-(2,2,2-trifluoroethoxy)thiazol-5-yl)ethyl)pyrrolidine-3-carboxamide]
100 to 1000 nM | C[C@@H](NC(=O)[C@H]1C[C@@H]1c1nc2ccccc2[nH]1)c1ccc2c(c1)OCO2 [Example 55, (1S,2S)—N—((R)-1-(benzo[d][1,3]dioxol-5-yl)ethyl)-2-(1H-benzo[d]imidazol-2-yl)cyclopropane-1-carboxamide]
100 to 1000 nM | O=C(N[C@@H](c1ccc(C(F)(F)F)s1)C1CCCCC1)[C@H]1C[C@@H]1c1nc2ccccc2[nH]1 [Example 59, (1S,2S)-2-(1H-benzo[d]imidazol-2-yl)-N—((R)-cyclohexyl(5-(trifluoromethyl)thiophen-2-yl)methyl)cyclopropane-1-carboxamide]
100 to 1000 nM | O=C(N[C@@H](c1ccc(C(F)(F)F)s1)C1CC1)[C@H]1C[C@@H]1c1nc2ccccc2[nH]1 [Example 69, (1S,2S)-2-(1H-benzo[d]imidazol-2-yl)-N—((R)-cyclopropyl(5-(trifluoromethyl)thiophen-2-yl)methyl)cyclopropane-1-carboxamide]
1000 to 10000 nM | C[C@@H](NC(=O)[C@H]1C[C@@H]1c1nc2ccccc2[nH]1)c1ccc2c(c1)OCCO2 [Example 70, (1S,2S)-2-(1H-benzo[d]imidazol-2-yl)-N—((R)-1-(2,3-dihydrobenzo[b][1,4]dioxin-6-yl)ethyl)cyclopropane-1-carboxamide]
1000 to 10000 nM | C[C@@H](NC(=O)[C@H]1C[C@@H]1c1nc2ccccc2[nH]1)c1nc(C2CC2)no1 [Example 72, (1S,2S)-2-(1H-benzo[d]imidazol-2-yl)-N—((R)-1-(3-cyclopropyl-1,2,4-oxadiazol-5-yl)ethyl)cyclopropane-1-carboxamide]
100 to 1000 nM | C[C@@H](NC(=O)[C@H]1C[C@@H]1c1nc2ccccc2[nH]1)c1ccc(C2CC2)o1 [Example 74, (1S,2S)-2-(1H-benzo[d]imidazol-2-yl)-N—((R)-1-(5-cyclopropylfuran-2-yl)ethyl)cyclopropane-1-carboxamide]
100 to 1000 nM | COc1ccc2oc([C@@H](C)NC(=O)[C@H]3C[C@@H]3c3nc4ccccc4[nH]3)cc2c1 [Example 79, (1S,2S)-2-(1H-benzo[d]imidazol-2-yl)-N—((R)-1-(5-methoxybenzofuran-2-yl)ethyl)cyclopropane-1-carboxamide]
1000 to 10000 nM | CC(NC(=O)[C@H]1C[C@@H]1c1nc2ccccc2[nH]1)c1cc2ncccc2o1 (stereo partly drawn) [Example 80, (1S,2S)-2-(1H-benzo[d]imidazol-2-yl)-N-(1-(furo[3,2-b]pyridin-2-yl)ethyl)cyclopropane-1-carboxamide]
≤ 100 nM | C[C@@H](NC(=O)[C@H]1C[C@@H]1c1nc2cc(Cl)ccc2[nH]1)c1cc2cc(F)ccc2o1 [Example 81, (1S,2S)-2-(5-chloro-1H-benzo[d]imidazol-2-yl)-N—((R)-1-(5-fluorobenzofuran-2-yl)ethyl)cyclopropane-1-carboxamide]
100 to 1000 nM | C[C@@H](NC(=O)[C@H]1C[C@@H]1c1nc2ccccc2[nH]1)c1ccc(C(=O)N2CC(F)(F)C2)s1 [Example 83, (1S,2S)-2-(1H-benzo[d]imidazol-2-yl)-N—((R)-1-(5-(3,3-difluoroazetidine-1-carbonyl)thiophen-2-yl)ethyl)cyclopropane-1-carboxamide]
1000 to 10000 nM | C[C@@H](NC(=O)[C@H]1C[C@@H]1c1nc2ccccc2[nH]1)c1ccc(C(=O)N(C)C)s1 [Example 84, 5-((R)-1-((1S,2S)-2-(1H-benzo[d]imidazol-2-yl)cyclopropane-1-carboxamido)ethyl)-N,N-dimethylthiophene-2-carboxamide]
1000 to 10000 nM | C[C@@H](NC(=O)[C@H]1C[C@@H]1c1nc2ccccc2[nH]1)c1ccc2ccn(C)c2c1 [Example 86, (1S,2S)-2-(1H-benzo[d]imidazol-2-yl)-N—((R)-1-(1-methyl-1H-indol-6-yl)ethyl)cyclopropane-1-carboxamide]
1000 to 10000 nM | C[C@@H](NC(=O)[C@H]1C[C@@H]1c1nc2ccccc2[nH]1)c1ccc(C(=O)N2CCCCCC2)s1 [Example 87, (1S,2S)—N—((R)-1-(5-(azepane-1-carbonyl)thiophen-2-yl)ethyl)-2-(1H-benzo[d]imidazol-2-yl)cyclopropane-1-carboxamide]
100 to 1000 nM | C[C@@H](NC(=O)[C@H]1C[C@@H]1c1nc2ccccc2[nH]1)c1cnc(-c2ccccc2)s1 [Example 89, (1S,2S)-2-(1H-benzo[d]imidazol-2-yl)-N—((R)-1-(2-phenylthiazol-5-yl)ethyl)cyclopropane-1-carboxamide]
100 to 1000 nM | C[C@@H](NC(=O)[C@H]1C[C@@H]1c1nc2ccccc2[nH]1)c1ccc(C(=O)N2CCC(F)(F)CC2)s1 [Example 94, (1S,2S)-2-(1H-benzo[d]imidazol-2-yl)-N—((R)-1-(5-(4,4-difluoropiperidine-1-carbonyl)thiophen-2-yl)ethyl)cyclopropane-1-carboxamide]
1000 to 10000 nM | C[C@@H](NC(=O)[C@H]1C[C@@H]1c1nc2ccccc2[nH]1)c1ccc(C(=O)N2CCCC(F)C2)s1 (stereo partly drawn) [Example 95, (1S,2S)-2-(1H-benzo[d]imidazol-2-yl)-N-((1R)-1-(5-(3-fluoropiperidine-1-carbonyl)thiophen-2-yl)ethyl)cyclopropane-1-carboxamide]
100 to 1000 nM | C[C@@H](NC(=O)[C@H]1C[C@@H]1c1nc2ccccc2[nH]1)c1cc2cccc(F)c2o1 [Example 96, (1S,2S)-2-(1H-benzo[d]imidazol-2-yl)-N—((R)-1-(7-fluorobenzofuran-2-yl)ethyl)cyclopropane-1-carboxamide]
100 to 1000 nM | C[C@@H](NC(=O)[C@H]1C[C@@H]1c1nc2ccccc2[nH]1)c1cc2c(F)cccc2o1 [Example 97, (1S,2S)-2-(1H-benzo[d]imidazol-2-yl)-N—((R)-1-(4-fluorobenzofuran-2-yl)ethyl)cyclopropane-1-carboxamide]
1000 to 10000 nM | CC(NC(=O)[C@H]1C[C@@H]1c1nc2ccccc2[nH]1)c1cc2cnccc2o1 (stereo partly drawn) [Example 99, (1S,2S)-2-(1H-benzo[d]imidazol-2-yl)-N-(1-(furo[3,2-c]pyridin-2-yl)ethyl)cyclopropane-1-carboxamide]
100 to 1000 nM | C[C@@H](NC(=O)[C@H]1C[C@@H]1c1nc2ccccc2[nH]1)c1cc2cc(C#N)ccc2o1 [Example 107, (1S,2S)-2-(1H-benzo[d]imidazol-2-yl)-N—((R)-1-(5-cyanobenzofuran-2-yl)ethyl)cyclopropane-1-carboxamide]
≤ 100 nM | CCn1c([C@H]2C[C@@H]2C(=O)N[C@H](C)c2cc3ccc(F)cc3o2)nc2ccccc21 [Example 110, (1S,2S)-2-(1-ethyl-1H-benzo[d]imidazol-2-yl)-N—((R)-1-(6-fluorobenzofuran-2-yl)ethyl)cyclopropane-1-carboxamide]
≤ 100 nM | O=C(NCc1cc2cc(F)ccc2o1)[C@H]1C[C@@H]1c1nc2ccccc2[nH]1 [Example 113, (1S,2S)-2-(1H-benzo[d]imidazol-2-yl)-N-((5-fluorobenzofuran-2-yl)methyl)cyclopropane-1-carboxamide]
100 to 1000 nM | CC(C)[C@H](NC(=O)[C@H]1C[C@@H]1c1nc2ccccc2[nH]1)c1ccc(C(F)(F)F)s1 [Example 115, (1S,2S)-2-(1H-benzo[d]imidazol-2-yl)-N—((S)-2-methyl-1-(5-(trifluoromethyl)thiophen-2-yl)propyl)cyclopropane-1-carboxamide]
≤ 100 nM | C[C@@H](NC(=O)[C@H]1C[C@@H]1c1nc2cc(F)ccc2[nH]1)c1ccc(OCC(F)(F)F)s1 [Example 118, (1S,2S)-2-(5-fluoro-1H-benzo[d]imidazol-2-yl)-N—((R)-1-(5-(2,2,2-trifluoroethoxy)thiophen-2-yl)ethyl)cyclopropane-1-carboxamide]
≤ 100 nM | C[C@@H](NC(=O)[C@H]1C[C@@H]1c1nc2ccccc2[nH]1)c1cc2ccc(F)cc2s1 [Example 119, (1S,2S)-2-(1H-benzo[d]imidazol-2-yl)-N—((R)-1-(6-fluorobenzo[b]thiophen-2-yl)ethyl)cyclopropane-1-carboxamide]
